Data published in patent US20060216238A1, “Compositions and methods for targeting or imaging a tissue in a vertebrate subject” (priority 2005, published 2006).

Columns and labels:
[1] = test system: CD8+ T cells producing IFN-γ and TNF-α; experiment: Virus-specific CD8+ T-cell activity, ICCS assay; type: in vivo, mouse
[2] = test system: LCMV; conditions: mouse, in vivo
[3] = Trafficking of OG-CPMV in vivo by tissue fluorescence measurements; set-up: species or system mouse; conditions: oral, exception GI tissues and lymph nodes in 1 of 3 mice
Protocol: Inoculation of mice with free Oregon Green 488 dye. Mice were administered 3.81 μg per mouse of free OG-488 dye by oral gavage, the equivalent amount of dye as that attached to the CPMV particles given by oral gavage. One mouse per day for three days post inoculation was perfused and tissues were isolated for fluorescence measurements. Similarly, by the intravenous route three mice were injected with 0.509 μg per mouse of free OG-488 dye, the equivalent amount of dye as that attached to the CPMV particles administered i.v. Tissues were harvested from mice following perfusion as described above.
Fluorescence measurements. Tissues were isolated and homogenized in PBS, then centrifuged at 10,000 g for 10 minutes at 4° C. to precipitate the cell debris. The OG-488-specific fluorescence emissions in the clarified tissue supernatants were determined using a Varian Cary Eclipse fluorescence spectrophotometer. A control sample of sham-inoculated tissue supernatant from each tissue was spiked with a known amount of OG-CPMV and the tissue-specific dye excitation and emission were determined for each tissue. The determined tissue specific emission λ value was then used in five separate scans of each tissue supernatant sample, following which the spectra were averaged and the emission value of the sham-inoculated control sample was subtracted as background.

[4] = test system: HUVECS; experiment: Endothelial cell migration assay; type: cell-based, human
Protocol: Endothelial cell migration assay. Migration of calcein AM labeled cells (5 μM, 30 min, at 37° C.) was tested in the presence or absence of the CPMV chimeras using cell migration chambers Briefly, the lower wells were loaded with buffers containing various chemo-attractants. The framed filter membrane was positioned on the top and 50,000 calcein labeled HUVECs treated with/without the targeting chimeras were added to the top well above the membrane. The assembly was incubated for 2 h at 37° C. and the number of cells that transmigrated to the bottom wells was quantified by measuring the intensity of fluorescence at 488 nm.

Substance: Lymphocytic choriomeningitis virus (LCMV), Armstrong strain
- CD8+ T cells producing IFN-γ ([1]; assay 8 days after boosting): 13.53%
- CD8+ T cells producing TNF-α ([1]; assay 8 days after boosting): 7.3%
- CD8+ T-cells producing IFN-γ ([1]; primary response assay): 10%
- CD8+ T-cells producing TNF-α ([1]; primary response assay): 6.5%
- survival of lethal i.c. LCMV challenge [2]: enabled the mice to survive the lethal i.c. inoculation
- survival of lethal i.c. LCMV challenge, boost experiment [2]: All mice inoculated with LCMV 6 weeks before survived

Substance: Oregon Green 488 (OG-488) carboxylic acid, succinimidyl ester [free OG-488 dye]
- fluorescence in tissues due to free dye [3]: negligible in all tissues at all time points

Substance: VEGF [reference compound]
- stimulation of migration of cells across the filter [4]: 30%
